Publication PMC10518257 (Nature Cancer, 2023)
Where “and” joins values, the source holds several entries; their conditions need not be identical. Identical values can stand only once.

Key:
[1] = test system: Ba/F3 KIF5B–RET^WT allograft tumors; test: Subcutaneous allograft efficacy study; assay type: in vivo, BALB/c nude mice
LUAD-0086AS3 cells = test: Growth inhibition (alamarBlue, 96 h); assay type: cell-based, human; conditions: for raw viability signal (Source Data Fig. 3b-c): LUAD-0086AS3 (n=1, 3 replicates)
[2] = Animal weight of tumor-bearing mice

COCc1ccc(NC(=O)c2c(C#CCN3CCOCC3)n(C3(C)CC3)c3ncnc(N)c23)cc1 [Vepafestinib, 4-amino-N-[4-(methoxymethyl)phenyl]-7-(1-methylcyclopropyl)-6-[3-(morpholin-4-yl)prop-1-yn-1-yl]-7H-pyrrolo[2,3-d]pyrimidine-5-carboxamide]
Tumor Volume Mean ([1]; Ba/F3-KIF5B::RET, 50 mg/kg BID, Day 1, Ext. Data Fig. 9a): 153.20 mm3 | Tumor Volume Mean ([1]; Ba/F3-KIF5B::RET, 50 mg/kg BID, Day 1, Ext. Data Fig. 9b): 219.73 mm3 | Tumor Volume Mean ([1]; Ba/F3-KIF5B::RET, 50 mg/kg BID, Day 4, Ext. Data Fig. 9a): 87.32 mm3 | Tumor Volume Mean ([1]; Ba/F3-KIF5B::RET, 50 mg/kg BID, Day 4, Ext. Data Fig. 9b): 116.10 mm3 | Tumor Volume Mean ([1]; Ba/F3-KIF5B::RET, 50 mg/kg BID, Day 8, Ext. Data Fig. 9a): 98.53 mm3 | Tumor Volume Mean ([1]; Ba/F3-KIF5B::RET, 50 mg/kg BID, Day 8, Ext. Data Fig. 9b): 190.23 mm3 | Tumor Volume Mean ([1]; Ba/F3-KIF5B::RET, 50 mg/kg BID, Day 11, Ext. Data Fig. 9a): 80.59 mm3 | Tumor Volume Mean ([1]; Ba/F3-KIF5B::RET, 50 mg/kg BID, Day 11, Ext. Data Fig. 9b): 68.61 mm3 | Tumor Volume Mean ([1]; Ba/F3-KIF5B::RET, 50 mg/kg BID, Day 15, Ext. Data Fig. 9a): 80.54 mm3 | Tumor Volume Mean ([1]; Ba/F3-KIF5B::RET, 50 mg/kg BID, Day 15, Ext. Data Fig. 9b): 131.30 mm3 | Tumor Volume Mean ([1]; Fig. 7a Ba/F3-KIF5B::RET, 25 mg/kg BID, day 0, in mm³ (unit assumed)): 186.18 | Tumor Volume Mean ([1]; Fig. 7a Ba/F3-KIF5B::RET, 25 mg/kg BID, day 4, in mm³ (unit assumed)): 191.92 | Tumor Volume Mean ([1]; Fig. 7a Ba/F3-KIF5B::RET, 25 mg/kg BID, day 8, in mm³ (unit assumed)): 184.92 | Tumor Volume Mean ([1]; Fig. 7a Ba/F3-KIF5B::RET, 25 mg/kg BID, day 11, in mm³ (unit assumed)): 174.38 | Tumor Volume Mean ([1]; Fig. 7a Ba/F3-KIF5B::RET, 25 mg/kg BID, day 15, in mm³ (unit assumed)): 165.09 | Tumor Volume Mean ([1]; Fig. 7a Ba/F3-KIF5B::RET, 50 mg/kg BID, day 0, in mm³ (unit assumed)): 187.80 | Tumor Volume Mean ([1]; Fig. 7a Ba/F3-KIF5B::RET, 50 mg/kg BID, day 4, in mm³ (unit assumed)): 184.99 | Tumor Volume Mean ([1]; Fig. 7a Ba/F3-KIF5B::RET, 50 mg/kg BID, day 8, in mm³ (unit assumed)): 148.12 | Tumor Volume Mean ([1]; Fig. 7a Ba/F3-KIF5B::RET, 50 mg/kg BID, day 11, in mm³ (unit assumed)): 106.67 | Tumor Volume Mean ([1]; Fig. 7a Ba/F3-KIF5B::RET, 50 mg/kg BID, day 15, in mm³ (unit assumed)): 83.29 | IC50 (LUAD-0086AS3 cells; Homo sapiens, 96 h, read-out: IC50 for Inhibition of Growth (95% CI)): 116 nM | raw viability signal (Source Data Fig. 3b-c) (LUAD-0086AS3 cells; 0.01 nM): 16237.2 and 19485.2 and 18210.6 | raw viability signal (Source Data Fig. 3b-c) (LUAD-0086AS3 cells; 0.1 nM): 16457.6 and 20449.8 and 20222 | raw viability signal (Source Data Fig. 3b-c) (LUAD-0086AS3 cells; 1 nM): 16743.2 and 19056.2 and 19367.3 | raw viability signal (Source Data Fig. 3b-c) (LUAD-0086AS3 cells; 10 nM): 12680.1 and 18071 and 16933 | raw viability signal (Source Data Fig. 3b-c) (LUAD-0086AS3 cells; 100 nM): 5830.14 and 9884.36 and 9286.4 | raw viability signal (Source Data Fig. 3b-c) (LUAD-0086AS3 cells; 1000 nM): 6803.13 and 8603.1 and 8594.97 | raw viability signal (Source Data Fig. 3b-c) (LUAD-0086AS3 cells; 10000 nM): 3602.32 and 4605.44 and 4993.57 | Animal Weight, Mean ([2]; Ba/F3-KIF5B::RET (Fig 8e), 25 mg/kg BID, day 0): 25.1 g | Animal Weight, Mean ([2]; Ba/F3-KIF5B::RET (Fig 8e), 25 mg/kg BID, day 4): 27.6 g | Animal Weight, Mean ([2]; Ba/F3-KIF5B::RET (Fig 8e), 25 mg/kg BID, day 8): 27.2 g | Animal Weight, Mean ([2]; Ba/F3-KIF5B::RET (Fig 8e), 25 mg/kg BID, day 11): 27.1 g | Animal Weight, Mean ([2]; Ba/F3-KIF5B::RET (Fig 8e), 25 mg/kg BID, day 15): 27.6 g | Animal Weight, Mean ([2]; Ba/F3-KIF5B::RET (Fig 8e), 50 mg/kg BID, day 0): 25.4 g | Animal Weight, Mean ([2]; Ba/F3-KIF5B::RET (Fig 8e), 50 mg/kg BID, day 4): 27.8 g | Animal Weight, Mean ([2]; Ba/F3-KIF5B::RET (Fig 8e), 50 mg/kg BID, day 8): 26.3 g | Animal Weight, Mean ([2]; Ba/F3-KIF5B::RET (Fig 8e), 50 mg/kg BID, day 11): 25.3 g | Animal Weight, Mean ([2]; Ba/F3-KIF5B::RET (Fig 8e), 50 mg/kg BID, day 15): 25.9 g | Animal Weight, Mean ([2]; Ba/F3-KIF5B::RET G810R (Fig 8f), Vepafestinib 10 mg/kg BID, day 1): 25.86 g | Animal Weight, Mean ([2]; Ba/F3-KIF5B::RET G810R (Fig 8f), Vepafestinib 10 mg/kg BID, day 4): 25.30 g | Animal Weight, Mean ([2]; Ba/F3-KIF5B::RET G810R (Fig 8f), Vepafestinib 10 mg/kg BID, day 8): 24.90 g | Animal Weight, Mean ([2]; Ba/F3-KIF5B::RET G810R (Fig 8f), Vepafestinib 10 mg/kg BID, day 11): 25.72 g | Animal Weight, Mean ([2]; Ba/F3-KIF5B::RET G810R (Fig 8f), Vepafestinib 10 mg/kg BID, day 15): 25.22 g | Animal Weight, Mean ([2]; Ba/F3-KIF5B::RET G810R (Fig 8g), Vepafestinib 50 mg/kg BID, day 1): 23.9 g | Animal Weight, Mean ([2]; Ba/F3-KIF5B::RET G810R (Fig 8g), Vepafestinib 50 mg/kg BID, day 4): 24.7 g | Animal Weight, Mean ([2]; Ba/F3-KIF5B::RET G810R (Fig 8g), Vepafestinib 50 mg/kg BID, day 8): 24.9 g | Animal Weight, Mean ([2]; Ba/F3-KIF5B::RET G810R (Fig 8g), Vepafestinib 50 mg/kg BID, day 11): 24.3 g | Animal Weight, Mean ([2]; Ba/F3-KIF5B::RET G810R (Fig 8g), Vepafestinib 50 mg/kg BID, day 15): 24.2 g | Animal Weight (g), Mean ([2]; Ba/F3-KIF5B::RET tumor-bearing mice (Ext. Data Fig 8i), 50 mg/kg BID, day 1): 25.8 g | Animal Weight (g), Mean ([2]; Ba/F3-KIF5B::RET tumor-bearing mice (Ext. Data Fig 8i), 50 mg/kg BID, day 4): 26.2 g | Animal Weight (g), Mean ([2]; Ba/F3-KIF5B::RET tumor-bearing mice (Ext. Data Fig 8i), 50 mg/kg BID, day 8): 26.0 g | Animal Weight (g), Mean ([2]; Ba/F3-KIF5B::RET tumor-bearing mice (Ext. Data Fig 8i), 50 mg/kg BID, day 11): 25.3 g | Animal Weight (g), Mean ([2]; Ba/F3-KIF5B::RET tumor-bearing mice (Ext. Data Fig 8i), 50 mg/kg BID, day 15): 26.9 g | Animal Weight (g), Mean ([2]; Ba/F3-KIF5B::RET tumor-bearing mice (Ext. Data Fig 8h), 50 mg/kg BID, day 1): 28.4 g | Animal Weight (g), Mean ([2]; Ba/F3-KIF5B::RET tumor-bearing mice (Ext. Data Fig 8h), 50 mg/kg BID, day 4): 28.5 g | Animal Weight (g), Mean ([2]; Ba/F3-KIF5B::RET tumor-bearing mice (Ext. Data Fig 8h), 50 mg/kg BID, day 8): 29.3 g | Animal Weight (g), Mean ([2]; Ba/F3-KIF5B::RET tumor-bearing mice (Ext. Data Fig 8h), 50 mg/kg BID, day 11): 29.0 g | Animal Weight (g), Mean ([2]; Ba/F3-KIF5B::RET tumor-bearing mice (Ext. Data Fig 8h), 50 mg/kg BID, day 15): 29.0 g | effect on animal health or animal weight ([2]; ECLC5B xenograft, all dosages, P > 0.05): No dosage of vepafestinib had any adverse effect | Animal Weight ([2]; ECLC5 Xenografts, 25 mg/kg BID, treatment day 7, individual animals, 25 mg/kg): 24 g (2×) and 22 g and 21 g and 27 g | Animal Weight ([2]; ECLC5 Xenografts, 25 mg/kg BID, treatment day 11, individual animals, 25 mg/kg): 24 g and 22 g | Animal Weight ([2]; ECLC5 Xenografts, 50 mg/kg BID, treatment day 7, individual animals, 50 mg/kg): 20 g and 23 g (2×) and 21 g and 22 g | Animal Weight ([2]; ECLC5 Xenografts, 50 mg/kg QD, treatment day 7, individual animals, 50 mg/kg): 22 g (2×) and 21 g and 23 g and 24 g | Animal Weight ([2]; ECLC5 Xenografts, 100 mg/kg QD, treatment day 7, individual animals, 100 mg/kg): 22 g (3×) and 24 g and 25 g | Animal Weight (g), Mean ([2]; LC-2/ad xenograft mice, 25 mg/kg BID, day 0): 25.9 g | Animal Weight (g), Mean ([2]; LC-2/ad xenograft mice, 25 mg/kg BID, day 4): 25.1 g | Animal Weight (g), Mean ([2]; LC-2/ad xenograft mice, 25 mg/kg BID, day 8): 24.6 g | Animal Weight (g), Mean ([2]; LC-2/ad xenograft mice, 25 mg/kg BID, day 11): 24.4 g | Animal Weight (g), Mean ([2]; LC-2/ad xenograft mice, 25 mg/kg BID, day 15): 23.5 g | Animal Weight (g), Mean ([2]; LC-2/ad xenograft mice, 50 mg/kg BID, day 0): 25.1 g | Animal Weight (g), Mean ([2]; LC-2/ad xenograft mice, 50 mg/kg BID, day 4): 25.3 g | Animal Weight (g), Mean ([2]; LC-2/ad xenograft mice, 50 mg/kg BID, day 8): 24.2 g | Animal Weight (g), Mean ([2]; LC-2/ad xenograft mice, 50 mg/kg BID, day 11): 24.4 g | Animal Weight (g), Mean ([2]; LC-2/ad xenograft mice, 50 mg/kg BID, day 15): 23.5 g | Animal Weight (g), Mean ([2]; LC-2/ad xenograft mice, 50 mg/kg QD, day 0): 25.0 g | Animal Weight (g), Mean ([2]; LC-2/ad xenograft mice, 50 mg/kg QD, day 4): 24.8 g | Animal Weight (g), Mean ([2]; LC-2/ad xenograft mice, 50 mg/kg QD, day 8): 24.7 g | Animal Weight (g), Mean ([2]; LC-2/ad xenograft mice, 50 mg/kg QD, day 11): 25.0 g | Animal Weight (g), Mean ([2]; LC-2/ad xenograft mice, 50 mg/kg QD, day 15): 24.3 g | Animal Weight ([2]; NIH-3T3-CCDC6::RET xenografts, 25 mg/kg BID, day 0, 25 mg/kg): 22 g and 21 g and 24 g
